{
  "source": "patent US11179350B2",
  "about": "“Nutraceutical compositions comprising C60 and Cox-2 inhibitor” (priority 2018, dated 2021)",
  "origin": "cited, not measured here",
  "key": {"[1]": {"conditions": "more potent than Vitamin C"}, "mice": {"system": "mice", "conditions": "mice (Quick et al. 2008)"}, "rats": {"system": "rats", "conditions": "repeated oral administration (Baati et al. 2012)"}, "[2]": {"system": "tumor growth and metastasis", "conditions": "Prylutska et al. 2011"}},
  "data": [
    {"molecule": "c12c3c4c5c1c1c6c7c2c2c8c3c3c9c4c4c%10c5c5c1c1c6c6c%11c7c2c2c7c8c3c3c8c9c4c4c9c%10c5c5c1c1c6c6c%11c2c2c7c3c3c8c4c4c9c5c1c1c6c2c3c41", "note": "[C60, Buckminsterfullerene]", "values": [
      {"measurement": "antioxidant potency relative to Vitamin C", "setting": "[1]", "result": 172, "unit": "times"},
      {"measurement": "prolongation of life", "setting": "mice", "result": "prolong life"},
      {"measurement": "prolongation of life", "setting": "rats", "result": "prolong life"},
      {"measurement": "tumor growth and metastasis", "setting": "[2]", "result": "inhibit tumor growth and metastasis"}
    ]}
  ]
}
